Experimental data from patent publication US11807650B2, “NMDA receptor modulators and uses thereof” (Novartis AG, priority 2016, dated 2023).

Target: T1, human GRIN1 (transcript variant NR1-3) and GRIN2D expressed in Xenopus oocytes (Homo sapiens, UniProt O15399)
T1 construct: GenScript (GRIN2D synthesis) SC115601; host or cells: Xenopus oocytes injected with cRNA (1 GluN1 : 2 GluN2)
Test: NR2D oocyte potentiation assay (two-electrode voltage clamp)
Type: cell-based
Settings: 10 uM test compound; glutamate and glycine 10 μM each; holding potential −40 mV
Summary of the method: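 Xenopus oocytes were defolliculated with collagenase, then injected with 50 nL of cRNA encoding human GluN1 (NR1-3 variant) and GluN2D mixed 1:2 and kept 72 h at 16° C. Two-electrode voltage clamp at −40 mV recorded currents; after 10 μM glutamate plus 10 μM glycine reached plateau, test compound was added until a new plateau formed.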

T1 sequence (O15399 28-1336, other chains not shown): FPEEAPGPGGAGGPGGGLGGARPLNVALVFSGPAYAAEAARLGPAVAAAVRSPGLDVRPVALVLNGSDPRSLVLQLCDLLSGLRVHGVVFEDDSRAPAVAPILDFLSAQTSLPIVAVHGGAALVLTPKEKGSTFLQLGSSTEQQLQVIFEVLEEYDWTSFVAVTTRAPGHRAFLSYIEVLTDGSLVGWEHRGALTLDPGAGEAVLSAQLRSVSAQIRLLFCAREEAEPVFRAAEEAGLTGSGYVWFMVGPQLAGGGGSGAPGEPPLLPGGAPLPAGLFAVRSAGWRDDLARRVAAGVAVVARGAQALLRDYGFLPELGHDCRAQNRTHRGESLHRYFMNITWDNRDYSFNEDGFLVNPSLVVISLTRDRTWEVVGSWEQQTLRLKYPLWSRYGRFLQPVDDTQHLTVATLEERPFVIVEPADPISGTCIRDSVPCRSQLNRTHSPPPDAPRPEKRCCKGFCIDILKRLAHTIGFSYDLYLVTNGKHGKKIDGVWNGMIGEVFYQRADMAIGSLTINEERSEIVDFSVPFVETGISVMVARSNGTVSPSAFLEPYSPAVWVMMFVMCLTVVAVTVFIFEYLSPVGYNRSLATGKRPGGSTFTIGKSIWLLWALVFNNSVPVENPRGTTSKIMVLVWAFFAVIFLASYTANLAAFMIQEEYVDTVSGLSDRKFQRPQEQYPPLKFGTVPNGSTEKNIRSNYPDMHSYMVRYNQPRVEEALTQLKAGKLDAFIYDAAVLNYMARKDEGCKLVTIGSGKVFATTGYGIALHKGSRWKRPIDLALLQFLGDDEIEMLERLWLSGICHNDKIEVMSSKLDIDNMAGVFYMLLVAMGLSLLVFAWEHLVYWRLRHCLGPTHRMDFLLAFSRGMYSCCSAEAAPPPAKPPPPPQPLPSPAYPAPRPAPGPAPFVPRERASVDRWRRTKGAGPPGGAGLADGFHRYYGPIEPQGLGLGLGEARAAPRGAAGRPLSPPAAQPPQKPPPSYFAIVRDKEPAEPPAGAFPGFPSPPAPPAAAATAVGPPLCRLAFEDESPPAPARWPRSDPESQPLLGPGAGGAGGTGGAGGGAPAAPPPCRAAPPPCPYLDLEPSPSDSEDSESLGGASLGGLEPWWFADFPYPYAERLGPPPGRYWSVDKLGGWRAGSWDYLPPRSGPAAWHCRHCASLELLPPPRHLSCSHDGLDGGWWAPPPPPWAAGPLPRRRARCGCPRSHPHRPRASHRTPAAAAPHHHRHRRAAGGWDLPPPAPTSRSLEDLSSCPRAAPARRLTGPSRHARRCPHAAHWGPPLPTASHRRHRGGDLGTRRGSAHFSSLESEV

Structure (SMILES) | activation at 10 µM
CC(C)(C)c1ncc(-c2cc3n(c(=O)c2C#N)CCCS3)cc1F [Example 102, 8-(6-(tert-butyl)-5-fluoropyridin-3-yl)-6-oxo-3,4-dihydro-2H,6H-pyrido[2,1-b][1,3]thiazine-7-carbonitrile] | > 1000%
CC1CSc2cc(-c3cnc(C(C)(C)C)c(F)c3)c(C#N)c(=O)n2C1 (stereo not shown) [Example 103, 8-(6-(tert-butyl)-5-fluoropyridin-3-yl)-3-methyl-6-oxo-3,4-dihydro-2H,6H-pyrido[2,1-b][1,3]thiazine-7-carbonitrile] | > 1000%
C[C@H]1CSc2cc(-c3cnc(C(C)(C)C)nc3)c(C#N)c(=O)n2C1 [Example 104, (R)-8-(2-(tert-butyl)pyrimidin-5-yl)-3-methyl-6-oxo-3,4-dihydro-2H,6H-pyrido[2,1-b][1,3]thiazine-7-carbonitrile] | > 1000%
CC1CSc2nc(-c3ccc(C4(C)CC4)nc3)c(C#N)c(=O)n2C1 (stereo not shown) [Example 108, 3-methyl-8-(6-(1-methylcyclopropyl)pyridin-3-yl)-6-oxo-3,4-dihydro-2H,6H-pyrimido[2,1-b][1,3]thiazine-7-carbonitrile] | 500 to 1000%
CC1(c2ccc(-c3nc4n(c(=O)c3C#N)CCCS4)cn2)CC1(F)F (stereo not shown) [Example 110, 8-(6-(2,2-difluoro-1-methylcyclopropyl)pyridin-3-yl)-6-oxo-3,4-dihydro-2H,6H-pyrimido[2,1-b][1,3]thiazine-7-carbonitrile] | 500 to 1000%
CC1CSc2nc(-c3ccc(C4(C)CC4(F)F)nc3)c(C#N)c(=O)n2C1 (stereo not shown) [Example 111, 8-[6-(2,2-difluoro-1-methyl-cyclopropyl)pyridin-3-yl]-3-methyl-6-oxo-2H,3H,4H,6H-pyimido[2,1-b] [1,3]thiazine-7-carbonitrile] | 500 to 1000%

Continued, values first:

activation at 10 µM | Structure (SMILES)
> 1000% | C[C@@H]1CSc2nc(-c3cnc(C(C)(C)C)nc3)c(C#N)c(=N)n2C1 [Example 101, (S)-8-(2-(tert-butyl)pyrimidin-5-yl)-6-imino-3-methyl-3,4-dihydro-2H,6H-pyrimido[2,1-b][1,3]thiazine-7-carbonitrile]
> 1000% | C[C@@H]1CSc2cc(-c3cnc(C(C)(C)C)nc3)c(C#N)c(=O)n2C1 [Example 105, (S)-8-(2-(tert-butyl)pyrimidin-5-yl)-3-methyl-6-oxo-3,4-dihydro-2H,6H-pyrido[2,1-b][1,3]thiazine-7-carbonitrile]
> 1000% | C[C@H]1CSc2cc(-c3cnc(C(C)(C)C)c(F)c3)c(C#N)c(=O)n2C1 [Example 106, (R)-8-(6-(tert-butyl)-5-fluoropyridin-3-yl)-3-methyl-6-oxo-3,4-dihydro-2H,6H-pyrido[2,1-b][1,3]thiazine-7-carbonitrile]
500 to 1000% | C[C@@H]1CSc2cc(-c3cnc(C(C)(C)C)c(F)c3)c(C#N)c(=O)n2C1 [Example 107, (S)-8-(6-(tert-butyl)-5-fluoropyridin-3-yl)-3-methyl-6-oxo-3,4-dihydro-2H,6H-pyrido[2,1-b][1,3]thiazine-7-carbonitrile]
500 to 1000% | CC1(c2ccc(-c3nc4n(c(=O)c3C#N)CCCS4)cn2)CC1 [Example 109, 8-[6-(1-methyl-cyclopropyl)pyridin-3-yl]-6-oxo-2H,3H, 4H,6H-pyrimido[2,1-b] [1,3]thiazine-7-carbonitrile]
> 1000% | C[C@H]1CSc2nc(-c3cnc(C(C)(C)C)c(F)c3)c(C#N)c(=N)n2C1 [Example 112, (R)-8-(6-(tert-butyl)-5-fluoropyridin-3-yl)-6-imino-3-methyl-3,4-dihydro-2H,6H-pyrimido[2,1-b][1,3]thiazine-7-carbonitrile]
> 1000% | C[C@@H]1CSc2nc(-c3cnc(C(C)(C)C)c(F)c3)c(C#N)c(=N)n2C1 [Example 113, (S)-8-(6-(tert-butyl)-5-fluoropyridin-3-yl)-6-imino-3-methyl-3,4-dihydro-2H,6H-pyrimido[2,1-b][1,3]thiazine-7-carbonitrile]
